Where “and” joins values, the source holds several entries; their conditions need not be identical. Identical values can stand only once. Toxic doses and inconclusive results are not listed.

The source of these data is PubChem BioAssay AID252 (DTP/NCI, 2004).

For the assay, the system named is BDF1 mice, intracerebral L1210 leukemia, survival T/C. The experiment in a line: NCI In Vivo Anticancer Drug Screen. Data for tumor model L1210 Leukemia (intracerebral) in B6D2F1 (BDF1) mice. As to conditions: higher = longer survival. A digest of the protocol: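 Readout is the T/C ratio: survival of compound-treated animals over that of vehicle-treated controls, in mice bearing transplantable tumour.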

Setting [1] is: endpoint: mean survival time, dose: 45.0 mg/kg/injection, schedule: Q01DX001 (ip), vehicle: other.

Take `O=C1C(NC(=O)C2CCCCC2)=C(N2CC2)C(=O)C(NC(=O)C2CCCCC2)=C1N1CC1`: the T/C runs as follows: (endpoint: mean survival time, dose: 25.0 mg/kg/injection, schedule: Q01DX009 (ip), vehicle: Klucel (hydroxypropylcellulose) (HPC)) 111 % of control; (endpoint: mean survival time, dose: 50.0 mg/kg/injection, schedule: Q01DX009 (ip), vehicle: Klucel (hydroxypropylcellulose) (HPC)) 101 % of control and 102 % of control and 241 % of control; (endpoint: mean survival time, dose: 50.0 mg/kg/injection, schedule: Q01DX Z (ip), vehicle: carboxymethylcellulose (CMC)) 104 % of control; (endpoint: mean survival time, dose: 100.0 mg/kg/injection, schedule: Q01DX Z (ip), vehicle: carboxymethylcellulose (CMC)) 103 % of control; (endpoint: mean survival time, dose: 200.0 mg/kg/injection, schedule: Q01DX009 (ip), vehicle: Klucel (hydroxypropylcellulose) (HPC)) 105 % of control and 115 % of control and 119 % of control; (endpoint: mean survival time, dose: 200.0 mg/kg/injection, schedule: Q01DX Z (ip), vehicle: carboxymethylcellulose (CMC)) 103 % of control. The T/C reads like this: (endpoint: mean survival time, dose: 400.0 mg/kg/injection, schedule: Q01DX009 (ip), vehicle: Klucel (hydroxypropylcellulose) (HPC)) 119 % of control and 97 % of control; (endpoint: mean survival time, dose: 400.0 mg/kg/injection, schedule: Q01DX Z (ip), vehicle: carboxymethylcellulose (CMC)) 116 % of control; (endpoint: mean survival time, dose: 440.0 mg/kg/injection, schedule: Q01DX001 (ip), vehicle: carboxymethylcellulose (CMC)) 96 % of control and 98 % of control; (endpoint: mean survival time, dose: 670.0 mg/kg/injection, schedule: Q01DX001 (ip), vehicle: carboxymethylcellulose (CMC)) 104 % of control and 97 % of control; (endpoint: mean survival time, dose: 800.0 mg/kg/injection, schedule: Q01DX009 (ip), vehicle: Klucel (hydroxypropylcellulose) (HPC)) 104 % of control; (endpoint: mean survival time, dose: 1000.0 mg/kg/injection, schedule: Q01DX001 (ip), vehicle: carboxymethylcellulose (CMC)) 102 % of control and 103 % of control.
`CNNCc1ccc(C(=O)NC(C)C)cc1`: the T/C is 105 % of control (endpoint: mean survival time, dose: 25.0 mg/kg/injection, schedule: Q01DX009 (ip), vehicle: saline); 122 % of control (endpoint: mean survival time, dose: 40.0 mg/kg/injection, schedule: Q01DX Z (ip), vehicle: saline); 108 % of control (endpoint: mean survival time, dose: 50.0 mg/kg/injection, schedule: Q01DX009 (ip), vehicle: saline); 102 % of control (endpoint: mean survival time, dose: 64.0 mg/kg/injection, schedule: Q01DX010 (oral), vehicle: clinical formulation); 155 % of control (endpoint: mean survival time, dose: 160.0 mg/kg/injection, schedule: Q01DX Z (ip), vehicle: saline); 105 % of control (endpoint: median survival time, dose: 0.5 mg/kg/injection, schedule: Q01DX010 (ip), vehicle: clinical formulation). In addition, the T/C (endpoint: median survival time, dose: 0.5 mg/kg/injection, schedule: Q01DX010 (ip), vehicle: saline) is 106 % of control; the T/C (endpoint: median survival time, dose: 1.0 mg/kg/injection, schedule: Q01DX010 (ip), vehicle: clinical formulation) was 105 % of control; the T/C (endpoint: median survival time, dose: 1.0 mg/kg/injection, schedule: Q01DX010 (ip), vehicle: saline) is 103 % of control; the T/C (endpoint: median survival time, dose: 1.0 mg/kg/injection, schedule: Q01DX010 (oral), vehicle: clinical formulation) is 105 % of control; the T/C (endpoint: median survival time, dose: 2.0 mg/kg/injection, schedule: Q01DX010 (ip), vehicle: clinical formulation) was 103 % of control; the T/C (endpoint: median survival time, dose: 2.0 mg/kg/injection, schedule: Q01DX010 (ip), vehicle: saline) was 106 % of control. Further, the T/C is, setting by setting: (endpoint: median survival time, dose: 2.0 mg/kg/injection, schedule: Q01DX010 (oral), vehicle: clinical formulation) 103 % of control; (endpoint: median survival time, dose: 4.0 mg/kg/injection, schedule: Q01DX010 (ip), vehicle: clinical formulation) 99 % of control; (endpoint: median survival time, dose: 4.0 mg/kg/injection, schedule: Q01DX010 (ip), vehicle: saline) 106 % of control; (endpoint: median survival time, dose: 4.0 mg/kg/injection, schedule: Q01DX010 (oral), vehicle: clinical formulation) 105 % of control; (endpoint: median survival time, dose: 8.0 mg/kg/injection, schedule: Q01DX010 (ip), vehicle: clinical formulation) 101 % of control; (endpoint: median survival time, dose: 8.0 mg/kg/injection, schedule: Q01DX010 (ip), vehicle: saline) 111 % of control. Moreover, the T/C is, setting by setting: (endpoint: median survival time, dose: 8.0 mg/kg/injection, schedule: Q01DX010 (oral), vehicle: clinical formulation) 95 % of control; (endpoint: median survival time, dose: 16.0 mg/kg/injection, schedule: Q01DX010 (ip), vehicle: clinical formulation) 103 % of control; (endpoint: median survival time, dose: 16.0 mg/kg/injection, schedule: Q01DX010 (ip), vehicle: saline) 109 % of control; (endpoint: median survival time, dose: 16.0 mg/kg/injection, schedule: Q01DX010 (oral), vehicle: clinical formulation) 92 % of control; (endpoint: median survival time, dose: 32.0 mg/kg/injection, schedule: Q01DX010 (ip), vehicle: clinical formulation) 101 % of control; (endpoint: median survival time, dose: 32.0 mg/kg/injection, schedule: Q01DX010 (ip), vehicle: saline) 104 % of control. The T/C runs as follows: (endpoint: median survival time, dose: 32.0 mg/kg/injection, schedule: Q01DX010 (oral), vehicle: clinical formulation) 97 % of control; (endpoint: median survival time, dose: 64.0 mg/kg/injection, schedule: Q01DX010 (oral), vehicle: clinical formulation) 109 % of control; (endpoint: median survival time, dose: 128.0 mg/kg/injection, schedule: Q01DX010 (oral), vehicle: clinical formulation) 104 % of control.
On to `Cc1c(C)c(NC(=O)N(CCCl)N=O)c(C)c(C)c1NC(=O)N(CCCl)N=O`, for which the T/C runs as follows: (endpoint: mean survival time, dose: 15.5 mg/kg/injection, schedule: Q01DX001 (ip), vehicle: other) 102 % of control; (endpoint: mean survival time, dose: 31.0 mg/kg/injection, schedule: Q01DX001 (ip), vehicle: other) 98 % of control; (endpoint: mean survival time, dose: 62.0 mg/kg/injection, schedule: Q01DX001 (ip), vehicle: other) 101 % of control; (endpoint: mean survival time, dose: 250.0 mg/kg/injection, schedule: Q01DX001 (ip), vehicle: other) 171 % of control and 175 % of control; (endpoint: mean survival time, dose: 375.0 mg/kg/injection, schedule: Q01DX001 (ip), vehicle: other) 182 % of control and 183 % of control; (endpoint: mean survival time, dose: 500.0 mg/kg/injection, schedule: Q01DX001 (ip), vehicle: other) 172 % of control and 178 % of control. Also, the T/C (endpoint: mean survival time, dose: 501.0 mg/kg/injection, schedule: Q01DX001 (ip), vehicle: other) is 93 % of control.
`O=NN(CCF)C(=O)NC1CCCCC1`: the T/C is, setting by setting: (endpoint: mean survival time, dose: 13.0 mg/kg/injection, schedule: Q01DX001 (ip), vehicle: carboxymethylcellulose (CMC)) 120 % of control; (endpoint: mean survival time, dose: 13.5 mg/kg/injection, schedule: Q01DX001 (ip), vehicle: other) 166 % of control and 214 % of control and 233 % of control; (endpoint: mean survival time, dose: 13.5 mg/kg/injection, schedule: Q01DX001 (oral), vehicle: other) 253 % of control and 270 % of control and 284 % of control; (endpoint: mean survival time, dose: 20.0 mg/kg/injection, schedule: Q01DX001 (ip), vehicle: carboxymethylcellulose (CMC)) 180 % of control; (endpoint: mean survival time, dose: 27.0 mg/kg/injection, schedule: Q01DX001 (ip), vehicle: other) 156 % of control and 373 % of control and 379 % of control; (endpoint: mean survival time, dose: 27.0 mg/kg/injection, schedule: Q01DX001 (oral), vehicle: other) 325 % of control and 352 % of control and 462 % of control. Moreover, the T/C by setting is: (endpoint: mean survival time, dose: 30.0 mg/kg/injection, schedule: Q01DX001 (ip), vehicle: carboxymethylcellulose (CMC)) 290 % of control and 322 % of control; (endpoint: mean survival time, dose: 45.0 mg/kg/injection, schedule: Q01DX001 (ip), vehicle: carboxymethylcellulose (CMC)) 293 % of control and 337 % of control; (endpoint: mean survival time, dose: 54.0 mg/kg/injection, schedule: Q01DX001 (ip), vehicle: other) 190 % of control and 322 % of control and 367 % of control; (endpoint: mean survival time, dose: 54.0 mg/kg/injection, schedule: Q01DX001 (oral), vehicle: other) 203 % of control and 379 % of control; (endpoint: mean survival time, dose: 67.0 mg/kg/injection, schedule: Q01DX001 (ip), vehicle: carboxymethylcellulose (CMC)) 275 % of control.
Regarding `CN(N=O)C(=O)C(=O)N(C)N=O`, the T/C is 98 % of control (endpoint: mean survival time, dose: 15.0 mg/kg/injection, schedule: Q01DX Z (ip), vehicle: saline); 97 % of control (endpoint: mean survival time, dose: 30.0 mg/kg/injection, schedule: Q01DX Z (ip), vehicle: saline); 98 % of control (endpoint: mean survival time, dose: 60.0 mg/kg/injection, schedule: Q01DX Z (ip), vehicle: saline); 98 % of control (endpoint: mean survival time, dose: 120.0 mg/kg/injection, schedule: Q01DX Z (ip), vehicle: saline).
`CC12CC3(C)CC(C)(C1)CC(NC(=O)N(CCCl)N=O)(C2)C3`: the T/C runs as follows: under setting [1], 95 % of control; (endpoint: mean survival time, dose: 60.0 mg/kg/injection, schedule: Q01DX001 (ip), vehicle: other) 97 % of control; (endpoint: mean survival time, dose: 90.0 mg/kg/injection, schedule: Q01DX001 (ip), vehicle: other) 104 % of control; (endpoint: mean survival time, dose: 125.0 mg/kg/injection, schedule: Q01DX001 (ip), vehicle: other) 110 % of control; (endpoint: mean survival time, dose: 187.0 mg/kg/injection, schedule: Q01DX001 (ip), vehicle: other) 112 % of control.
In the case of `O=NN(CCCl)C(=O)NC1C2CC3CC(C2)CC1C3` (centres undefined), the T/C (endpoint: mean survival time, dose: 22.0 mg/kg/injection, schedule: Q01DX001 (ip), vehicle: other) was 109 % of control and 119 % of control; the T/C under setting [1] is 175 % of control and 231 % of control; the T/C (endpoint: mean survival time, dose: 91.0 mg/kg/injection, schedule: Q01DX001 (ip), vehicle: other) was 340 % of control and 376 % of control; the T/C (endpoint: mean survival time, dose: 144.0 mg/kg/injection, schedule: Q01DX001 (ip), vehicle: other) is 153 % of control; the T/C (endpoint: mean survival time, dose: 181.0 mg/kg/injection, schedule: Q01DX001 (ip), vehicle: other) was 250 % of control and 335 % of control; the T/C (endpoint: mean survival time, dose: 215.0 mg/kg/injection, schedule: Q01DX001 (ip), vehicle: other) is 238 % of control. The T/C reads like this: (endpoint: mean survival time, dose: 322.0 mg/kg/injection, schedule: Q01DX001 (ip), vehicle: other) 217 % of control; (endpoint: mean survival time, dose: 362.0 mg/kg/injection, schedule: Q01DX001 (ip), vehicle: other) 103 % of control.
